Measured values as given in PubChem BioAssay (NCI).
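Test compounds were applied to cells in 96-well plates for 48 hours at 5 doses. GI50: concentration for 50% inhibition of growth. TGI denotes the concentration required for complete inhibition of growth.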

How the values were obtained:
Assay in all cases: growth of human tumour cells (NCI), 48 h
786-0 renal = tested on: 786-0 renal
A498 renal = tested on: A498 renal
A549 NSCLC = tested on: A549 NSCLC
HCC-2998 colon = tested on: HCC-2998 colon
MOLT-4 leukemia = tested on: MOLT-4 leukemia
OVCAR-5 ovarian = tested on: OVCAR-5 ovarian
SF-295 CNS = tested on: SF-295 CNS
SK-MEL-28 melanoma = tested on: SK-MEL-28 melanoma
U251 CNS = tested on: U251 CNS
UACC-62 melanoma = tested on: UACC-62 melanoma
MDA-MB-231 breast = tested on: MDA-MB-231 breast

Structure (SMILES) | TGI (786-0 renal) [µM] | TGI (A498 renal) [µM] | TGI (A549 NSCLC) [µM] | TGI (HCC-2998 colon) [µM] | TGI (MOLT-4 leukemia) [µM] | TGI (OVCAR-5 ovarian) [µM] | TGI (SF-295 CNS) [µM] | TGI (SK-MEL-28 melanoma) [µM] | TGI (U251 CNS) [µM] | TGI (UACC-62 melanoma) [µM] | TGI (MDA-MB-231 breast) [µM] | GI50 (MOLT-4 leukemia) [µM] | GI50 (A498 renal) [µM] | GI50 (A549 NSCLC) [µM] | GI50 (HCC-2998 colon) [µM] | GI50 (OVCAR-5 ovarian) [µM] | GI50 (SF-295 CNS) [µM] | GI50 (SK-MEL-28 melanoma) [µM] | GI50 (U251 CNS) [µM] | GI50 (UACC-62 melanoma) [µM]
CCOC(=O)c1cc2c(OCc3ccccc3)c(OC)cc3c2c(n1)N(c1ccc(OC)cc1)C(C)C3 (stereo not given) | > 50 | > 50 | > 50 | > 50 | > 50 | > 50 | > 50 | > 50 | > 50 | > 50 |  |  |  |  |  |  |  |  |  | 
COc1ccc(C(Cc2ccccc2)C2NC(=S)NC2=O)cc1 (stereo not given) | > 25 | > 25 | > 25 |  | > 25 | > 25 | > 25 | > 25 | > 25 |  | > 25 |  |  |  |  |  |  |  |  | 
CC1(C)CC2(C)CC1CC2(O)c1ccccc1 (stereo not given) | > 100 | > 100 | > 100 |  | > 100 | > 100 | > 100 | > 100 | > 100 | > 100 | > 100 |  |  |  |  |  |  |  |  | 
Cc1ccc(S(=O)(=O)NC(=O)NC(CCCCN=C(N)N)C(=O)O)cc1 (stereo not given) | > 100 |  | > 100 |  | > 100 |  | > 100 | > 100 | > 100 | > 100 | > 100 |  |  |  |  |  |  |  |  | 
COC(=O)CC(C(C(=O)OCc1ccccc1)C(C)O)N1C(=O)OC(c2ccccc2)C1c1ccccc1 (stereo not given) | > 100 | > 100 | > 100 | > 100 | > 100 |  | > 100 | > 100 | > 100 | > 100 |  |  |  |  |  |  |  |  |  | 
COc1cc(C2C(Cl)C(=O)N2NC(=O)c2ccc(NC(C)=O)cc2)ccc1O (stereo not given) | > 100 | > 100 | > 100 |  | > 100 | > 100 | > 100 | > 100 | > 100 | > 100 |  |  |  |  |  |  |  |  |  | 
O=CC(O)C(O)C(O)C1CNC(=S)O1 (stereo not given) | > 100 | > 100 | > 100 |  | > 100 | > 100 | > 100 | > 100 | > 100 | > 100 | > 100 |  |  |  |  |  |  |  |  | 
Cc1cn(C2CC(CCCO)C(CO)O2)c(=O)[nH]c1=O (stereo not given) | > 100 | > 100 | > 100 | > 100 | > 100 | > 100 | > 100 | > 100 | > 100 | > 100 |  | > 100 |  |  |  |  |  |  |  | 
Cc1ccc(N(O)C(C)(C)C)cc1 |  | > 100 | > 100 | > 100 | > 100 | > 100 | > 100 | > 100 | > 100 | > 100 |  |  |  |  |  |  |  |  |  | 
O=S(=O)(c1ccc(-c2nnc(-c3ccc(F)cc3)o2)cc1)c1ccc(-c2nnc(-c3ccc(F)cc3)o2)cc1 | > 100 | 58.6 | > 100 | > 100 | > 100 | > 100 | > 100 |  | > 100 | > 100 |  |  |  |  |  |  |  |  |  | 
COc1cccc(/C(Cl)=C(\C=O)c2cccc(OC)c2)c1 | 38 | 36.3 | 40.8 | 30.5 | 78.3 | 38 | 35.6 | 25.5 | 22.2 | 18.8 |  |  |  |  |  |  |  |  |  | 
O=NN(CCF)C(=O)NC1CC2CCC1C2 (stereo not given) |  | > 100 | > 100 | > 100 | > 100 | > 100 | > 100 | > 100 | > 100 | > 100 |  |  |  |  |  |  |  |  |  | 
Cc1ccnc2nc(N)ccc12 | > 100 | > 100 | > 100 |  | > 100 | > 100 | > 100 | > 100 | > 100 | > 100 | > 100 |  |  |  |  |  |  |  |  | 
CCC(COC(=O)CC[C@@H](NC(=O)C(C)NC(=O)C(C)OC1C(O)C(CO)OC(OCc2ccccc2)C1NC(C)=O)C(N)=O)NC1c2ccccc2Nc2cccc([N+](=O)[O-])c21 (stereo not given in full) | > 100 |  | > 100 | > 100 | > 100 | > 100 | > 100 | > 100 | > 100 | > 100 |  |  |  |  |  |  |  |  |  | 
O=C(Sc1c(-c2ccccc2)c(=O)n(-c2ccccc2)c(=S)n1-c1ccccc1)c1cccs1 | > 100 |  | > 100 |  | 86 | > 100 | > 100 | > 100 | > 100 |  |  |  |  |  |  |  |  |  |  | 
NC(Cc1c[nH]c2cc([N+](=O)[O-])ccc12)C(=O)O (stereo not given) | > 100 | > 100 | > 100 |  | > 100 | > 100 | > 100 | > 100 | > 100 | > 100 | > 100 |  |  |  |  |  |  |  |  | 
CCCc1c(C(=O)OCC)[nH]c(-c2ccc(-c3[nH]c(C(=O)OCC)c(CCC)c3C(=O)OCC)s2)c1C(=O)OCC | > 100 | > 100 | > 100 | > 100 | > 100 | > 100 | > 100 | > 100 | > 100 | > 100 |  |  |  |  |  |  |  |  |  | 

Structure (SMILES) | TGI (786-0 renal) [µM] | TGI (A498 renal) [µM] | TGI (A549 NSCLC) [µM] | TGI (HCC-2998 colon) [µM] | TGI (MOLT-4 leukemia) [µM] | TGI (OVCAR-5 ovarian) [µM] | TGI (SF-295 CNS) [µM] | TGI (SK-MEL-28 melanoma) [µM] | TGI (U251 CNS) [µM] | TGI (UACC-62 melanoma) [µM] | TGI (MDA-MB-231 breast) [µM] | GI50 (MOLT-4 leukemia) [µM] | GI50 (A498 renal) [µM] | GI50 (A549 NSCLC) [µM] | GI50 (HCC-2998 colon) [µM] | GI50 (OVCAR-5 ovarian) [µM] | GI50 (SF-295 CNS) [µM] | GI50 (SK-MEL-28 melanoma) [µM] | GI50 (U251 CNS) [µM] | GI50 (UACC-62 melanoma) [µM]
CN1CN(c2ccccc2)C2(CCN(CCCCCCF)CC2)C1=O | > 100 |  | > 100 |  | > 100 | > 100 | > 100 | > 100 | > 100 | > 100 | > 100 |  |  |  |  |  |  |  |  | 
CC(=O)NNc1nc(C)c(C(=O)NNC(=O)C(=O)Nc2cccc(C(C)=O)c2)s1 |  | 47.8 | > 100 | 32.5 | > 100 | > 100 | 66.2 | 49 | 90.4 | 31.4 |  |  |  |  |  |  |  |  |  | 
C[S+](C)CC1OC(n2cnc3c(N)ncnc32)C(O)C1O (stereo not given) |  | > 225 | > 225 | > 225 | > 225 | > 225 | > 225 | > 225 | > 225 | > 200 |  |  |  |  |  |  |  |  |  | 
C=C(C)C1CC/C(C)=C/CC[C@]2(C)O[C@@H]2CCC2=CC1OC2=O (stereo not given in full) |  | > 100 | > 100 | > 100 | 30.6 | > 100 | > 100 | > 100 | > 100 | > 100 |  | 12.1 | 23.2 | 23.4 | 80 | 0.635 | 24 | > 100 | 21.7 | 78.8
COc1ccc2c(c1)OCCc1cn[nH]c1-2 |  | 86.1 | > 100 | > 100 | 70.4 | > 100 | > 100 | > 100 | > 100 | 84.3 |  |  |  |  |  |  |  |  |  | 
CN(C)CCNC(=O)c1cccc2cc3cc(O)ccc3nc12 |  | 2.42 | 3.47 | 8.3 | 3.17 | 4.32 | 3.4 | 4.65 | 4.46 | 2.74 |  |  |  |  |  |  |  |  |  | 
CC(C)OP(=O)(OC(C)C)C1=NN(c2ccc([N+](=O)[O-])cc2)C(P(=O)(OC(C)C)OC(C)C)=NN1c1ccc([N+](=O)[O-])cc1 |  |  | > 100 | > 100 | > 100 | > 100 |  | > 100 | > 100 | > 100 |  |  |  |  |  |  |  |  |  | 
Cc1c(OCc2ccccc2)c(=O)ccn1CCc1c[nH]c2ccccc12 | 87 |  | > 100 |  | 31.9 | > 100 | > 100 |  | > 100 | 87.3 | > 100 |  |  |  |  |  |  |  |  | 
Cc1ccc(-c2cc(O)c3nc4ccccc4n3c2)cc1 | > 100 | > 100 | > 100 |  | > 100 |  | > 100 | > 100 | > 100 | > 100 | > 100 |  |  |  |  |  |  |  |  | 
O=c1c2ccccc2nc(-c2ccccc2)n1NC(=S)Nc1ccc(Cl)cc1 | > 100 | > 100 | > 100 |  | > 100 | > 100 | > 100 | 91.6 | > 100 | > 100 |  |  |  |  |  |  |  |  |  | 
O=C1Nc2cc([N+](=O)[O-])c(Br)cc2C1=O | 35.8 | > 100 | > 100 |  | 43 |  | 14.3 | 36.3 |  | 42.4 |  |  |  |  |  |  |  |  |  | 
COc1ccccc1N=Nc1c(O)c(S(=O)(=O)O)cc2cc(S(=O)(=O)O)ccc12 | > 100 | > 100 | > 100 |  | > 100 | > 100 | > 100 | > 100 | > 100 | > 100 | > 100 |  |  |  |  |  |  |  |  | 
CCOC(=O)C(C)Sc1nnc(COc2ccccc2OC)n1-c1ccccc1 (stereo not given) | > 100 | > 100 | > 100 | > 100 |  | > 100 | > 100 | > 100 | > 100 | > 100 |  |  |  |  |  |  |  |  |  | 
CC(C)(C)C(=O)OCC1OC(N=[N+]=[N-])C(OC(=O)C(C)(C)C)C(OC(=O)C(C)(C)C)C1OC(=O)C(C)(C)C (stereo not given) |  | > 100 | > 100 | > 100 | > 100 | > 100 | > 100 | > 100 | > 100 | > 100 |  |  |  |  |  |  |  |  |  | 
COc1ccc2nc3c(c(NCCCN(C)C)c2c1)CCCC3 | 28.8 | 36.3 | 49.9 | 21.5 | 14.2 | 35.6 | 29 | 30.9 | 30.1 | 31.2 |  |  |  |  |  |  |  |  |  | 
COC(=O)CCc1c(Cc2ccc[nH]2)[nH]c(C(=O)OCc2ccccc2)c1C | 31.4 | 62.8 | > 100 |  | 52.7 | > 100 | 53.3 | 39.7 | 44.1 | 66.8 | 28.9 |  |  |  |  |  |  |  |  | 
